Tests used:
TBK1 = biological target: T1, TBK1 (Homo sapiens, UniProt Q9UHD2); assay: TR-FRET enzymatic activity assay, TBK1; format: biochemical; note: full length recombinant TBK1 at 2.5 nM
T1 construct: TBK1 and IKKε were expressed and purified as full length recombinant proteins; made in house
T1 sequence (Q9UHD2 1-729): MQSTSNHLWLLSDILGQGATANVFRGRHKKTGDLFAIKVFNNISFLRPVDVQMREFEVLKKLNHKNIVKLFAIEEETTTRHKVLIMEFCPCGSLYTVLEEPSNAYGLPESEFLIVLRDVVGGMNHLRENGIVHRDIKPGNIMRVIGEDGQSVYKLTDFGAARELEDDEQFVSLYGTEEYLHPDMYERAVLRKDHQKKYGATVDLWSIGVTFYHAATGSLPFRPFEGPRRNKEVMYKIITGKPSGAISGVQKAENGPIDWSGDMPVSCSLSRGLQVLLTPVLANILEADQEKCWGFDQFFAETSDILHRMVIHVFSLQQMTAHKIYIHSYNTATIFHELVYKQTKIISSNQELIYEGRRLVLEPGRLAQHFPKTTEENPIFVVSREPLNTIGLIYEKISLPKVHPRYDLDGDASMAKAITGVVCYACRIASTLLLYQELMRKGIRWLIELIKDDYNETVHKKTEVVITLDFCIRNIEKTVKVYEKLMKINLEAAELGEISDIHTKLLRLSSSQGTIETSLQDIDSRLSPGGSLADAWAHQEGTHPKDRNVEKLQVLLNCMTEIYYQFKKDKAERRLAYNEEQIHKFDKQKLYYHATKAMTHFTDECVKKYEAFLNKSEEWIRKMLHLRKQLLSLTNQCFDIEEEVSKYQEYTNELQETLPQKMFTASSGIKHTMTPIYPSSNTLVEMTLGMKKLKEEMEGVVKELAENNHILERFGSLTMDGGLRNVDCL
How it was run: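 TR-FRET detected phosphorylation of a biotinylated serine/threonine peptide using 125 nM streptavidin XL665 plus europium-labelled anti-phospho antibody. Reactions with full-length recombinant kinase ran 240 min at 25 °C before EDTA quench. Values are geometric-mean IC50s (n ≥ 4) from four-parameter dose-response fits against staurosporine and DMSO controls.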

IKKε = biological target: T2, IKKε (Homo sapiens, UniProt Q14164); assay: TR-FRET enzymatic activity assay, IKKε; format: biochemical; conditions: read-out: IKKϵ IC50; note: full length recombinant IKKε at 0.3 nM
T2 construct: TBK1 and IKKε were expressed and purified as full length recombinant proteins; made in house
T2 sequence (Q14164 1-716): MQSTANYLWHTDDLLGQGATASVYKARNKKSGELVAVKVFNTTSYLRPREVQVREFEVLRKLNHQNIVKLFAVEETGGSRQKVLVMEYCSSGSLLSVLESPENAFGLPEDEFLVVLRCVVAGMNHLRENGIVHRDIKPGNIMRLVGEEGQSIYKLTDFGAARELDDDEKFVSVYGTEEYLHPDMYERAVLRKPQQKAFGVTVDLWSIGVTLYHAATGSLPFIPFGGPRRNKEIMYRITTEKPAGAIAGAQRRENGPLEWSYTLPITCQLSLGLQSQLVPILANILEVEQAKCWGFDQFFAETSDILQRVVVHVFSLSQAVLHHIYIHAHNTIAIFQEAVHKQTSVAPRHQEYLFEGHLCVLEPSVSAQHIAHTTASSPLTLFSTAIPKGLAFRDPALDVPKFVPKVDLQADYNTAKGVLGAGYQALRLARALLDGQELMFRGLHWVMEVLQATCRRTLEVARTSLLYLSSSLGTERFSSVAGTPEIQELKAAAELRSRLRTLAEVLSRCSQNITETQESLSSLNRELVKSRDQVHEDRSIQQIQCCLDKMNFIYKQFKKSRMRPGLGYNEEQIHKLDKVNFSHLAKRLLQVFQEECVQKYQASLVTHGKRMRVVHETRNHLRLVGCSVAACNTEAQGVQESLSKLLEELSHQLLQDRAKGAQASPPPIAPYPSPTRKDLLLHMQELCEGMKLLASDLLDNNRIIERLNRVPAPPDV
How it was run: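 IC50 values are geometric means of at least four determinations, fitted to a four-parameter curve after normalising to 1 μM staurosporine and DMSO. Signal: Eu-cryptate anti-phospho antibody plus 125 nM streptavidin-XL665 on a biotinylated peptide. Full-length recombinant enzyme reacted 240 min, 25 °C, then EDTA-quenched.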

Compound	IC50 (TBK1) [nM]	IC50 (IKKε) [nM]
N#Cc1cc(-c2cc(NC(=O)C3CC3)ncn2)ccc1O[C@H]1CCN(C(=O)[C@@H](O)CO)CC1(F)F [Example 22, N-(6-(3-cyano-4-(((S)-1-((S)-2,3-dihydroxypropanoyl)-3,3-difluoropiperidin-4-yl)oxy)phenyl)pyrimidin-4-yl)cyclopropanecarboxamide]	2.8	9
N#Cc1cc(-c2cc(NC(=O)C3CC3)ncn2)ccc1OC1CCN(C(=O)CO)CC1 [Example 23, N-(6-(3-cyano-4-((1-(2-hydroxyacetyl)piperidin-4-yl)oxy)phenyl)pyrimidin-4-yl)cyclopropanecarboxamide]	66.1	160
N#Cc1cc(-c2ccnc(NC(=O)C3CC3)c2)ncc1O[C@H]1CCN(C(=O)CO)C[C@H]1F [Example 24, N-(4-cyano-5-(((3R,4S)-3-fluoro-1-(2-hydroxyacetyl)piperidin-4-yl)oxy)-[2,4′-bipyridin]-2′-yl)cyclopropanecarboxamide]	86.1	192
N#Cc1cc(-c2cc(NC(=O)C3CC3)ncn2)ccc1O[C@H]1CCNCC1(F)F [Example 25, (S)—N-(6-(3-cyano-4-((3,3-difluoropiperidin-4-yl)oxy)phenyl)pyrimidin-4-yl)cyclopropanecarboxamide]	93.3	297
N#Cc1cc(-c2ccnc(NC(=O)C3CC3)c2)ccc1N1CCC[C@H]1C(=O)O [Example 26, (2-Cyano-4-(2-(cyclopropanecarboxamido)pyridin-4-yl)phenyl)-L-proline]	755	> 1000
Cn1cc(C(=O)N2CC[C@H](Oc3ccc(-c4cc(NC(=O)C5CC5)ncn4)cc3C#N)[C@H](F)C2)nn1 [Example 27, N-(6-(3-cyano-4-(((3R,4S)-3-fluoro-1-(1-methyl-1H-1,2,3-triazole-4-carbonyl)piperidin-4-yl)oxy)phenyl)pyrimidin-4-yl)cyclopropanecarboxamide]	18.1	29.6
N#Cc1cc(-c2cc(NC(=O)C3CC3)ncn2)ccc1O[C@H]1CCN(C(=O)c2nnc[nH]2)C[C@H]1F [Example 28, N-(6-(3-cyano-4-(((3R,4S)-3-fluoro-1-(4H-1,2,4-triazole-3-carbonyl)piperidin-4-yl)oxy)phenyl)pyrimidin-4-yl)cyclopropanecarboxamide]	8	12.4
N#Cc1cc(-c2cc(NC(=O)C3CC3)ncn2)ccc1O[C@H]1CCN(C=O)C[C@H]1F [Example 29, N-(6-(3-cyano-4-(((3R,4S)-3-fluoro-1-formylpiperidin-4-yl)oxy)phenyl)pyrimidin-4-yl)cyclopropanecarboxamide]	46.6	128
Cc1n[nH]c(C(=O)N2CC[C@H](Oc3ccc(-c4cc(NC(=O)C5CC5)ncn4)cc3C#N)[C@H](F)C2)n1 [Example 30, N-(6-(3-cyano-4-(((3R,4S)-3-fluoro-1-(3-methyl-1H-1,2,4-triazole-5-carbonyl)piperidin-4-yl)oxy)phenyl)pyrimidin-4-yl)cyclopropanecarboxamide]	7.2	7.4
C[n+]1ccccc1N1CC[C@H](Oc2ccc(-c3cc(NC(=O)C4CC4)ncn3)cc2C#N)[C@H](F)C1 [Example 31, 2-((3R,4S)-4-(2-cyano-4-(6-(cyclopropanecarboxamido)pyrimidin-4-yl)phenoxy)-3-fluoropiperidin-1-yl)-1-methylpyridin-1-ium 2,2,2-trifluoroacetate]	> 1000	> 1000
N#Cc1cc(-c2cc(NC(=O)C3CC3)ncn2)ccc1O[C@H]1CCN(C(=O)c2nnc[nH]2)CC1(F)F [Example 32, (S)—N-(6-(3-cyano-4-((3,3-difluoro-1-(4H-1,2,4-triazole-3-carbonyl)piperidin-4-yl)oxy)phenyl)pyrimidin-4-yl)cyclopropanecarboxamide]	5.6	7.1
N#Cc1cc(-c2cc(NC(=O)C3CC3)ncn2)ccc1O[C@H]1CCN(C(=O)c2cnco2)C[C@H]1F [Example 33, N-(6-(3-cyano-4-(((3R,4S)-3-fluoro-1-(oxazole-5-carbonyl)piperidin-4-yl)oxy)phenyl)pyrimidin-4-yl)cyclopropanecarboxamide]	47.6	167
Cc1n[nH]c(C(=O)N2CC[C@H](Oc3ccc(-c4cc(NC(=O)C5CC5)ncn4)cc3C#N)C(F)(F)C2)n1 [Example 34, (S)—N-(6-(3-cyano-4-((3,3-difluoro-1-(3-methyl-1H-1,2,4-triazole-5-carbonyl)piperidin-4-yl)oxy)phenyl)pyrimidin-4-yl)cyclopropanecarboxamide]	4.2	4.6
N#Cc1cc(-c2ccnc(NC(=O)C3(O)CC3)c2)ccc1OC1CCOCC1 [Example 36, N-(4-(3-cyano-4-((tetrahydro-2H-pyran-4-yl)oxy)phenyl)pyridin-2-yl)-1-hydroxycyclopropanecarboxamide]	> 1000	> 1000
CC(=O)OC1(C(=O)Nc2cc(-c3ccc(OC4CCOCC4)c(C#N)c3)ccn2)CC1 [Example 37, 1-((4-(3-cyano-4-((tetrahydro-2H-pyran-4-yl)oxy)phenyl)pyridin-2-yl)carbamoyl)cyclopropyl acetate]	> 1000	> 1000
CC(O)[C@@H]1C[C@H]1C(=O)Nc1cc(-c2ccc(OC3CCOCC3)c(C#N)c2)ccn1 (stereo partly drawn) [Example 39, (1,2-trans)-N-(4-(3-cyano-4-((tetrahydro-2H-pyran-4-yl)oxy)phenyl)pyridin-2-yl)-2-(-1-hydroxyethyl)cyclopropane-1-carboxamide]	96.3	73.2
N#Cc1cc(-c2ccnc(NC(=O)C3CC34CC4)c2)ccc1OC1CCOCC1 (centres unmarked) [Example 48, N-(4-(3-cyano-4-((tetrahydro-2H-pyran-4-yl)oxy)phenyl)pyridin-2-yl)spiro[2.2]pentane-1-carboxamide]	268	512
N#Cc1cc(-c2ccnc(NC(=O)C3(CF)CC3)c2)ccc1OC1CCOCC1 [Example 49, N-(4-(3-cyano-4-((tetrahydro-2H-pyran-4-yl)oxy)phenyl)pyridin-2-yl)-1-(fluoromethyl)cyclopropane-1-carboxamide]	> 1000	> 1000
N#Cc1cc(-c2ccnc(NC(=O)C3CC3c3ccco3)c2)ccc1OC1CCOCC1 (centres unmarked) [Example 51, N-(4-(3-cyano-4-((tetrahydro-2H-pyran-4-yl)oxy)phenyl)pyridin-2-yl)-2-(furan-2-yl)cyclopropane-1-carboxamide]	57.8	426
N#Cc1cc(-c2cc(NC(=O)C3CC3)ncn2)ccc1C(=O)NCC(F)F [Example 53, 2-cyano-4-(6-(cyclopropanecarboxamido)pyrimidin-4-yl)-N-(2,2-difluoroethyl)benzamide]	762	> 1000
N#Cc1cc(-c2cc(NC(=O)C3CC3)ncn2)ccc1C(=O)NCC(F)(F)F [Example 54, 2-cyano-4-(6-(cyclopropanecarboxamido)pyrimidin-4-yl)-N-(2,2,2-trifluoroethyl)benzamide]	883	> 1000
CC(=O)NC1C2CC1C2C(=O)Nc1cc(-c2ccc(OC3CCOCC3)c(C#N)c2)ccn1 (centres unmarked) [Example 55, 4-acetamido-N-(4-(3-cyano-4-((tetrahydro-2H-pyran-4-yl)oxy)phenyl)pyridin-2-yl)bicyclo[1.1.1]pentane-2-carboxamide]	> 1000	> 1000
